Laboratory results as given in patent publication US9440957B2, “Compounds and compositions for modulating EGFR Activity” (Novartis AG, priority 2012, dated 2016).
Read-outs that look alike come from different tables or passages of the source.

Tests used:
EGFR(L858R/T790M) = target: T1, EGFR(L858R/T790M) (Homo sapiens, UniProt P00533, L858R/T790M); assay: EGFR biochemical assay (HTRF), IC50 determinations
T1 construct: purchased from Carna (GST-a.a. 669-1210)
Protocol: All EGFR biochemical assays were carried out by HTRF method. […] The substrate peptide Biotin-TK-peptide was purchased from Cis-Bio. […] All reactions were carried out at room temperature in white ProxiPlate™ 384-well Plus plates (PerkinElmer) and were quenched with 5 μL of 0.2 M EDTA at 60 min. Five L of the detection reagents (2.5 ng PT66K and 0.05 μg SAXL per well) were added, the plates were incubated at room temperature for 1 h and then read in EnVision reader. […] For no-preincubation condition, the compounds were added to the assay solution containing ATP and peptide, and the reaction was initiated by addition of enzyme. For pre-incubation conditions, the compounds were added to the assay solution containing enzyme and peptide, and pre-incubated at room temperature for desired period of time, then the reaction was initiated by addition of ATP.

[1] = target: human EGFR WT (NIH/3T3 cells, EGF-induced) (Homo sapiens, UniProt P00533); assay: EGFR target modulation in engineered NIH/3T3 cell lines (phospho-EGFR Y1068 AlphaLISA), EGFR WT; assay type: cell-based; conditions: engineered NIH/3T3 cells, read-out: NIH3T3 IC50 (μM) EGFR (WT)
human EGFR WT (NIH/3T3 cells, EGF-induced), sequence (P00533 25-1210): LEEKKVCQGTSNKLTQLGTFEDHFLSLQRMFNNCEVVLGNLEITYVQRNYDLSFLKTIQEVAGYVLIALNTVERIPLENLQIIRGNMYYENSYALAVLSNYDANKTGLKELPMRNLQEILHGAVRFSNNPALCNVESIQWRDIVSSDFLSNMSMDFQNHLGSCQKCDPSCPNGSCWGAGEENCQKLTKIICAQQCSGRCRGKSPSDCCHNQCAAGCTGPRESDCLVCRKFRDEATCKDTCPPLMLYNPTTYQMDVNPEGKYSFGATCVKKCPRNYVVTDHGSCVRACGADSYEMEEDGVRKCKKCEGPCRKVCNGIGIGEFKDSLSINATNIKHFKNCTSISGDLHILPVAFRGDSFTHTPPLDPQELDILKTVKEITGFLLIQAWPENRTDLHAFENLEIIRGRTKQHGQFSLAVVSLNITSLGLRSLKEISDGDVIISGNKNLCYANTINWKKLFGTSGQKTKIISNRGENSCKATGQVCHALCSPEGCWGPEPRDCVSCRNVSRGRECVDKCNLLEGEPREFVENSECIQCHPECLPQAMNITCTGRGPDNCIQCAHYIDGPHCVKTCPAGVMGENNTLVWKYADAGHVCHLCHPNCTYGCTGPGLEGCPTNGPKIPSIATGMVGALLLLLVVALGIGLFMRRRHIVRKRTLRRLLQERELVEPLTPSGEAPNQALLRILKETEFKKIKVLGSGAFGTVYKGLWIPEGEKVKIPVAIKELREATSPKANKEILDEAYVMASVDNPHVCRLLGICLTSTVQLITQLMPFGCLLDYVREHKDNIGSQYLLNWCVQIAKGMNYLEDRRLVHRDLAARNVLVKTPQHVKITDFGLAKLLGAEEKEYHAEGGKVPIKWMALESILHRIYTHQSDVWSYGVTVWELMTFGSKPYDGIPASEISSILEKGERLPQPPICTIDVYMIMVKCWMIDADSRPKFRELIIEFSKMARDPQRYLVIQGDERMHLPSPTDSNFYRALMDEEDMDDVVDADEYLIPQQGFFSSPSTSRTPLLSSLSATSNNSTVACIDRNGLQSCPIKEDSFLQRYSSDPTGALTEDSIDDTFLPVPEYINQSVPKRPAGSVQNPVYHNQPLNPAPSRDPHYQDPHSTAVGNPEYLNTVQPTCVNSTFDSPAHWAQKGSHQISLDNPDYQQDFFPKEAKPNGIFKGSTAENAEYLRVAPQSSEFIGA
Protocol: (§1) EGFR Target Modulation in Engineered NIH/3T3 Cell Lines Tissue Culture.
(§2) The cells were harvested with 0.05% Trypsin/EDTA (Hyclone #SH30236.01), re-suspended in 5% FBS/DMEM Pen/Strep without Puromycin and plated at 9,000 cells per well in 50 μl of media in a 384-well black plate with clear bottoms (Greiner #789068G). The cells were allowed to incubate overnight in a 37° C., 5% CO2 humidified tissue culture incubator. A 12-point test compound curve was prepared by serial diluting a 10 μM stock 1:3 in DMSO in a 384-well compound plate (Greiner #789201L). The serial diluted compounds were transferred to the plate containing cells by using a 50 nl Pin Head device (Perkin Elmer) and the cells were placed back in the incubator for 3 hours. Only the EGFR WT-expressing cells were induced with 50 ng/ml EGF (Preprotech #AF-100-15) for 5 minutes before lysis. […] The plates were shaken at 4° C. for 5 minutes with foil top at maximum speed. […] The plates were sealed with a foil top and frozen at −80° C. and thawed when needed.
(§3) The frozen aliquots were thawed and briefly centrifuged. All antibodies and beads were diluted in 1× AlphaLISA HiBlock Buffer (PE #AL004C). […] Goat anti-total EGFR (R&D Systems #AF231) was added and allowed to equilibrate for 1 hour at room temperature at 1 nM final concentration.
(§4) With these parameters, the IC50's for each compound in each cell line was calculated using non-linear curve fitting analysis.

[2] = target: human EGFR L858R (NIH/3T3 cells) (Homo sapiens, UniProt P00533, L858R); assay: EGFR target modulation in engineered NIH/3T3 cell lines (phospho-EGFR Y1068 AlphaLISA), EGFR L858R; assay type: cell-based; conditions: engineered NIH/3T3 cells, read-out: NIH3T3 IC50 (μM) EGFR (L858R)
human EGFR L858R (NIH/3T3 cells), sequence (P00533 25-1210 L858R): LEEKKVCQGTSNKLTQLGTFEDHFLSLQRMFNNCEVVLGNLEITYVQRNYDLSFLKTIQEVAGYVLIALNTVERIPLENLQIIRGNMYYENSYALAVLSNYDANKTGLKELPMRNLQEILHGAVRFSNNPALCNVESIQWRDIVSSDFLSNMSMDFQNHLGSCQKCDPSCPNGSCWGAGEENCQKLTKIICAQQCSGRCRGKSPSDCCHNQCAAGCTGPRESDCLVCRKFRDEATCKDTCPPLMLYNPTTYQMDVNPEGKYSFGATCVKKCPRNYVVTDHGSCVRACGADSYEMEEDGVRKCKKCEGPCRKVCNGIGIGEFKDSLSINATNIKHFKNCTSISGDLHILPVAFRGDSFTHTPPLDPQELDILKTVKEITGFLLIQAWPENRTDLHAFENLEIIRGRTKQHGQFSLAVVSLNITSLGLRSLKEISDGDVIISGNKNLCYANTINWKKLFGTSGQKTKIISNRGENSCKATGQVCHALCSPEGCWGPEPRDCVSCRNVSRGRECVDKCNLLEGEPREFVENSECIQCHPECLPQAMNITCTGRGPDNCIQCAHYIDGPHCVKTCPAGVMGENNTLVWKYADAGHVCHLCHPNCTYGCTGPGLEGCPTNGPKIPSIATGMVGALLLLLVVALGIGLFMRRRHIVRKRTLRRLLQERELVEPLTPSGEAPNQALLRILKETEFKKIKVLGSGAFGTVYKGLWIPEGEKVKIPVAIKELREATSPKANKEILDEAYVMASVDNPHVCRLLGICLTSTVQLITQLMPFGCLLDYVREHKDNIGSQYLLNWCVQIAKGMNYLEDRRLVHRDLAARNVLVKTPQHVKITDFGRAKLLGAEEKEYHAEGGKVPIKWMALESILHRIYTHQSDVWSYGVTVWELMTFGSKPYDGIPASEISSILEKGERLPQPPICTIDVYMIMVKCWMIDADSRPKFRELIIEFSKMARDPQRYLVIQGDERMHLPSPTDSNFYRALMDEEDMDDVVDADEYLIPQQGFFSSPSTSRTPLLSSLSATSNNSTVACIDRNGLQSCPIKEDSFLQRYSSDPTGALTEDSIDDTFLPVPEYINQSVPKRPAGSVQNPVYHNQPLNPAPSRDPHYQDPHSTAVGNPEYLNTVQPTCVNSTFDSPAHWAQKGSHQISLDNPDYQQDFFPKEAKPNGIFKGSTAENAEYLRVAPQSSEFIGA
Protocol: as §1, §2, §3, §4

[3] = target: human EGFR L858R/T790M (NIH/3T3 cells) (Homo sapiens, UniProt P00533, L858R/T790M); assay: EGFR target modulation in engineered NIH/3T3 cell lines (phospho-EGFR Y1068 AlphaLISA), EGFR L858R/T790M; assay type: cell-based; conditions: engineered NIH/3T3 cells, read-out: NIH3T3 IC50 (μM) EGFR (L858R/T790M)
human EGFR L858R/T790M (NIH/3T3 cells), sequence (P00533 25-1210 T790M/L858R): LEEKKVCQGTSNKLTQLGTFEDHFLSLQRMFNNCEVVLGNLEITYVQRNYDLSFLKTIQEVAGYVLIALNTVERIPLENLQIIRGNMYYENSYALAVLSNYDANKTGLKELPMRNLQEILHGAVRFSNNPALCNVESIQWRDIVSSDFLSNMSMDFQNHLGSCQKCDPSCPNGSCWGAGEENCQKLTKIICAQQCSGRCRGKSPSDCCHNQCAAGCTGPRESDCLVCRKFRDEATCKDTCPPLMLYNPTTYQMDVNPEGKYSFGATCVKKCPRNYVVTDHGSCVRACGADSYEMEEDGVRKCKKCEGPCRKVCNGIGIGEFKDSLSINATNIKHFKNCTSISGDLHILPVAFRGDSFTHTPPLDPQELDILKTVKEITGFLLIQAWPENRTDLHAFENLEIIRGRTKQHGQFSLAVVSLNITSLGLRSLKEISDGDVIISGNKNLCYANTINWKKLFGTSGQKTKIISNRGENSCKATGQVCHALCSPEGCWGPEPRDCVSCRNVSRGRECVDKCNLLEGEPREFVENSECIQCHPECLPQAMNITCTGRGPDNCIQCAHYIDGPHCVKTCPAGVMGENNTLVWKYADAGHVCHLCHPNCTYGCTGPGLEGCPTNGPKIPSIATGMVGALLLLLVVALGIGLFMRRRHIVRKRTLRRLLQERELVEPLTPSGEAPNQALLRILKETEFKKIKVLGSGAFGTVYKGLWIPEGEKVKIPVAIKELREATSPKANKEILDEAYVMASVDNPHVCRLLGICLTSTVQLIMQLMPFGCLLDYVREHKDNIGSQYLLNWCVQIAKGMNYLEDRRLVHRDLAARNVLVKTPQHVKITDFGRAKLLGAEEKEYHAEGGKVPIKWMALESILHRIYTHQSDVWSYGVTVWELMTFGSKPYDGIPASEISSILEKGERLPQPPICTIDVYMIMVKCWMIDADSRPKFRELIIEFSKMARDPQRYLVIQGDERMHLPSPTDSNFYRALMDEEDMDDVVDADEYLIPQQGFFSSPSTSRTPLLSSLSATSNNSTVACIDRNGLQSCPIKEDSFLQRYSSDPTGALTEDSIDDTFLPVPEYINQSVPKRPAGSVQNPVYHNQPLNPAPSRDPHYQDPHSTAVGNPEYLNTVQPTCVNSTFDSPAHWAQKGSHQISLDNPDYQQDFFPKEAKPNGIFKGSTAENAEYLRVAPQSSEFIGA
Protocol: as §1, §2, §3, §4

[4] = EGFR (L858R/T790M) with 90 min pre-incubation, read-out: IC50 (μM) Column B
[5] = EGFR (L858R/T790M) with no pre-incubation, read-out: IC50 (μM) Column A

T1 sequence (P00533 669-1210 T790M/L858R): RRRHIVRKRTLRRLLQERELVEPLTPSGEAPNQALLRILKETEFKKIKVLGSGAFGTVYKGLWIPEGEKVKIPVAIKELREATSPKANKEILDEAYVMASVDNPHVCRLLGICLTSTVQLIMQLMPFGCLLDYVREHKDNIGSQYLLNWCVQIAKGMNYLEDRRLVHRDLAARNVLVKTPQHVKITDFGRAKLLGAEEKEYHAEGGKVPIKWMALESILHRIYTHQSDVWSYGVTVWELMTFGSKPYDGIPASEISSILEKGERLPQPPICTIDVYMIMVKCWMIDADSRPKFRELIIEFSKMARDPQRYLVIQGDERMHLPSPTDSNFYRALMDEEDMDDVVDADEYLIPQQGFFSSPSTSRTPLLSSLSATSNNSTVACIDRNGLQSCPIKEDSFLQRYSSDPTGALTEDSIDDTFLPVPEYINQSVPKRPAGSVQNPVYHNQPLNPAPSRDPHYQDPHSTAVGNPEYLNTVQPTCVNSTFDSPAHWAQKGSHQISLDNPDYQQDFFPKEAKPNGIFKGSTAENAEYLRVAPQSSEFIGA

| IC50 (EGFR(L858R/T790M); [4]) | IC50 (EGFR(L858R/T790M); [5]) | IC50 [1] | IC50 [2] | IC50 [3] | Structure (SMILES) |
| --- | --- | --- | --- | --- | --- |
| < 0.001 µM | 0.014 µM | 1.65 µM | 0.007 µM | 0.003 µM | C=CC(=O)N1CCCCC(n2c(NC(=O)c3cccc(C(F)(F)F)c3)nc3cccc(C)c32)C1 (stereo not shown) [Example 17-10] |
| 0.56 µM | 2.01 µM | > 10 µM | 3.2 µM | 0.49 µM | C=CC(=O)N1CCOCC(n2c(NC(=O)c3cccc(C(F)(F)F)c3)nc3cccc(C)c32)C1 (single isomer, unassigned) [Example 21-7A] |
| < 0.001 µM | 0.003 µM | 0.271 µM | 0.004 µM | 0.002 µM | Cc1cccc2nc(NC(=O)c3cc(F)cc(F)c3)n(C3CCCCN(C(=O)/C=C/CN(C)C)C3)c12 (stereo not shown) [Example 17-22] |
| 0.098 µM | 0.7 µM | > 10 µM | 2.2 µM | 0.45 µM | C=CC(=O)N1CCCC[C@H](n2c(NC(=O)c3cccc(C(F)(F)F)c3)nc3cccc(C)c32)C1 (single isomer, unassigned) [Example 21-3] |
| 0.186 µM | 1.75 µM | 8.2 µM | 1.75 µM | 0.14 µM | C=CC(=O)N1CCCC(n2c(NC(=O)c3cccc(C(F)(F)F)c3)nc3c2CCN(C(C)=O)C3)C1 (stereo not shown) [Example 17-169] |
| < 0.001 µM | < 0.001 µM | 0.02 µM | < 0.001 µM | 0.002 µM | Cc1cccc2nc(NC(=O)c3ccnc(N4CCCCC4)c3)n(C3CCCCN(C(=O)/C=C/CN(C)C)C3)c12 (stereo not shown) [Example 17-57] |
| 0.002 µM | 0.02 µM | 0.263 µM | 0.017 µM | 0.008 µM | Cc1cccc2nc(NC(=O)c3ccco3)n(C3CCCCN(C(=O)/C=C/CN(C)C)C3)c12 (stereo not shown) [Example 17-56] |
| < 0.001 µM | 0.002 µM | 0.047 µM | 0.001 µM | 0.002 µM | Cc1cccc2nc(NC(=O)c3ccnc(OC(F)(F)F)c3)n([C@@H]3CCCCN(C(=O)/C=C/CN(C)C)C3)c12 [Example 17-102] |
| < 0.001 µM | 0.012 µM | 0.12 µM | 0.002 µM | 0.002 µM | C=CC(=O)N1CCCCC(n2c(NC(=O)c3cccc(C(F)(F)F)c3)nc3cccc(CN4CCCC4)c32)C1 (stereo not shown) [Example 11, N-(1-(1-acryloyazepan-3-yl)-7-(pyrrolidin-1-ylmethyl)-1H-benzo[d]imidazol-2-yl)-3-(trifluoromethyl)benzamide] |
| < 0.001 µM | 0.004 µM | 0.012 µM | 0.002 µM | 0.002 µM | CCOc1cc(C(=O)Nc2nc3cccc(C)c3n2C2CCCCN(C(=O)/C=C/CN(C)C)C2)ccn1 (stereo not shown) [Example 17-65] |
| 0.01 µM | 0.93 µM | > 10 µM | 0.63 µM | 0.073 µM | C=CC(=O)N1CCCCC(n2c(NC(=O)c3ccccc3)nc3cccc(C(=O)NCCC(=O)OC)c32)C1 (stereo not shown) [Example 17-134] |
| 0.001 µM | 0.018 µM | 1.29 µM | 0.041 µM | 0.006 µM | C=CC(=O)N1CCCC[C@@H](n2c(NC(=O)c3ccccc3)nc3cccc(CN(C)CCS(C)(=O)=O)c32)C1 [Example 17-133] |
| 0.01 µM | 0.189 µM | 6 µM | 0.7 µM | 0.244 µM | Cc1cccc2nc(NC(=O)c3cccc(C(F)(F)F)c3)n([C@H]3COCCN(C(=O)/C=C/CN(C)C)C3)c12 [Example 17-6] |
| 0.009 µM | 0.39 µM | > 10 µM | 0.34 µM | 0.037 µM | C=CS(=O)(=O)N1CCCCC(n2c(NC(=O)c3cccc(C(F)(F)F)c3)nc3cccc(C)c32)C1 (stereo not shown) [Example 10, N-(7-methyl-1-(1-(vinylsulfonyl)azepan-3-yl)-1H-benzo[d]imidazol-2-yl)-3-(trifluoromethyl)benzamide] |
| < 0.001 µM | 0.007 µM | 0.39 µM | 0.015 µM | 0.003 µM | COc1cccc(C(=O)Nc2nc3cccc(C)c3n2C2CCCCN(C(=O)/C=C/CN(C)C)C2)c1 (stereo not shown) [Example 17-44] |
| < 0.001 µM | < 0.001 µM | 1.54 µM | 0.015 µM | 0.002 µM | C=CC(=O)N1CCCCC(n2c(NC(=O)c3ccccc3)nc3cccc(C)c32)C1 (stereo not shown) [Example 17-11] |
| < 0.001 µM | 0.007 µM | 0.186 µM | 0.006 µM | 0.002 µM | C=CC(=O)N1CCCC[C@@H](n2c(NC(=O)c3ccccc3)nc3cc(COCCOC)cc(C)c32)C1 [Example 17-128] |
| 0.03 µM | 1.76 µM | 8.2 µM | > 10 µM | 6.5 µM | C=CC(=O)N1CCCCC(n2c(NC(=O)c3ccccc3)nc3cccc(C(=O)NCCC(=O)O)c32)C1 (stereo not shown) [Example 17-136] |
| < 0.001 µM | 0.006 µM | 0.89 µM | 0.009 µM | 0.021 µM | Cc1cc(C(=O)Nc2nc3cccc(Cl)c3n2[C@@H]2CCCCN(C(=O)/C=C/CN3CC[C@H](O)C3)C2)ccn1 [Example 3-7] |
| < 0.001 µM | 0.008 µM | 0.44 µM | 0.012 µM | 0.004 µM | Cc1cccc(C(=O)Nc2nc3cccc(C)c3n2C2CCCCN(C(=O)/C=C/CN(C)C)C2)c1 (stereo not shown) [Example 17-41] |
| 0.35 µM | 10.6 µM | > 10 µM | 3.5 µM | 2.96 µM | Cc1cccc2nc(NC(=O)c3ncccn3)n(C3CCCCN(C(=O)/C=C/CN(C)C)C3)c12 (stereo not shown) [Example 17-36] |
| 0.007 µM | 0.12 µM | 5.2 µM | 0.221 µM | 0.072 µM | Cc1cccc2nc(NC(=O)c3cccnn3)n(C3CCCCN(C(=O)/C=C/CN(C)C)C3)c12 (stereo not shown) [Example 17-39] |
| < 0.001 µM | 0.018 µM | 0.61 µM | 0.023 µM | 0.02 µM | Cc1cccc2nc(NC(=O)c3cc(Cl)nc(OC(F)(F)F)c3)n([C@@H]3CCCCN(C(=O)/C=C/CN(C)C)C3)c12 [Example 17-104] |
